“And” between values parts separate entries of the source, which are not always exact repeats. Equal entries are not always repeated.
Tests used:
ENT3 = biological target: T1, ENT3 (Homo sapiens, UniProt Q9BZD2); assay: Inhibition of 3H-nucleoside influx by BAs in ENT3-expressing Xenopus oocytes; type: cell-based; conditions: for IC50 / ENT3 % uptake inhibition (Ado): 3H-Ado 20 μM, sodium-free buffer; for IC50: read-out: ENT3 IC50 (Ado uptake)
T1 construct: plasma membrane–directed ENT3 with a truncated N-terminus (that harbors lysosomal targeting motif); expressed in transfected cells; host or cells: Xenopus laevis oocytes injected with in vitro-transcribed mRNA from pOX-Δ36hENT3
T1 sequence (Q9BZD2 with tags, fused parts or gaps): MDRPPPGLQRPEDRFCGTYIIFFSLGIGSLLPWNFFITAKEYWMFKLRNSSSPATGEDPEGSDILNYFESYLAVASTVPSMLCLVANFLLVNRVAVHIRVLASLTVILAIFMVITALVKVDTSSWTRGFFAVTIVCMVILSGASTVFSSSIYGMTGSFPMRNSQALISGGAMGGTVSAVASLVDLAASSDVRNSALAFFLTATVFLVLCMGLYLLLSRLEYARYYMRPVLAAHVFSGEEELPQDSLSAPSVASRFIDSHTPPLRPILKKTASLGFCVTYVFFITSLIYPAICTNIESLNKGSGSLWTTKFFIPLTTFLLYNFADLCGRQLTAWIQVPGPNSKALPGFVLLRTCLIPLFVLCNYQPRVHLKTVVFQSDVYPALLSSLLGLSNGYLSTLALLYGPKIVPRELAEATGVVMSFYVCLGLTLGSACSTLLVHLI
Description: (§1) We expressed individual ENTs (ENT1, ENT2, and ENT3) in X. laevis oocytes (as described above) and analyzed the Ado influx from each of the ENTs in the presence of different BAs to better understand whether the inhibition profiles differ across human ENTs. […] We also conducted an analysis of the concentration-dependent inhibition of Ado transport to estimate the IC50 values of the BAs (Fig. 4, D–F and Table 2).
(§2) Inhibition of Ado influx in H2O- and ENT-injected oocytes by treatment with different BAs at 100 μM. D–F, concentration-dependent inhibition of Ado influx in ENT-injected oocytes by different BAs. The bars represent the mean ± SD (n = 8–12 oocytes). A representative experiment from 3 to 5 independent experiments is presented. Statistical analysis was performed using one-way ANOVA with Dunnett’s multiple comparisons test; ∗p < 0.032, ∗∗p < 0.0021, ∗∗∗∗p < 0.0001.
(§3) The generated pOX expression constructs were linearized with either the Not1 or Sac1 restriction enzymes. The digested products were purified via phenol‒chloroform extraction. The mRNAs were synthesized using mMESSAGE mMACHINE (Ambion) transcription kits according to the manufacturer’s instructions. The mRNAs were purified via lithium precipitation. Oocytes were procured from Ecocyte. Prior to experiments, procured oocytes were defolliculated by treating with collagenase A-OR II solution followed by washing with Barth’s solution. Following microscopic verification, selected oocytes were incubated to recover overnight at 25 °C in a shaker incubator. Fifty nanoliters (400–800 ng/μl) of equal amounts of mRNAs were injected into defolliculated oocytes the next day. Expression of plasmids was analyzed after RNA isolation from oocyte extracts and conducting qPCR analysis with gene-specific primers as described earlier ([30]). The injected oocytes were incubated at 15 °C for 24 h before transport assays were performed. […] Uptake was terminated by washing the oocytes three times with arrest buffer containing 20 mM uridine. Individual oocytes were shaken overnight in 10% SDS for complete dissolution, and then the radioactivity was quantified with a Beckman liquid scintillation counter. The data are presented as the mean ± SD (n = 8–12 oocytes). A representative experiment from 3 to 5 independent experiments is presented.

ENT1 [1] = biological target: T2, ENT1 (Homo sapiens, UniProt Q99808); assay: Inhibition of 3H-nucleoside influx by BAs in ENT1-expressing Xenopus oocytes; type: cell-based; conditions: 3H-Ado 20 μM, sodium-free buffer; for IC50: read-out: ENT1 IC50 (Ado uptake); for ENT1 % uptake inhibition (Ado): BA 100 μM
T2 construct: The complete ORF of ENT1 (amplified using forward primer); expressed in transfected cells; host or cells: Xenopus laevis oocytes injected with in vitro-transcribed capped mRNA from pOX-hENT1
T2 sequence (Q99808 1-456): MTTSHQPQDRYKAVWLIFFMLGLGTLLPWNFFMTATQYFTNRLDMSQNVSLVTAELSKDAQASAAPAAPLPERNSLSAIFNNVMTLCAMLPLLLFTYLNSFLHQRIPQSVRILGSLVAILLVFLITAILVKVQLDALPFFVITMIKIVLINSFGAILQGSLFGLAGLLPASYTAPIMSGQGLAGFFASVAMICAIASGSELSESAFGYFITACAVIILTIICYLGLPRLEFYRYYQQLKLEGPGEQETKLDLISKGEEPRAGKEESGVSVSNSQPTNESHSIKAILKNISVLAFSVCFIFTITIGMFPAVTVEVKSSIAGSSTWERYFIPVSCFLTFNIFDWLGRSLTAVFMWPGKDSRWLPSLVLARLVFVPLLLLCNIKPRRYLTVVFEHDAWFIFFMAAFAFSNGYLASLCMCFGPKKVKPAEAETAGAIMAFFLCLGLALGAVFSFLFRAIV
Description: as §1, §2, §3

ENT2 [2] = biological target: T3, ENT2 (Homo sapiens, UniProt Q14542); assay: Inhibition of 3H-nucleoside influx by BAs in ENT2-expressing Xenopus oocytes; type: cell-based; parameters: expressed in transfected cells; host or cells: Xenopus laevis oocytes injected with in vitro-transcribed capped mRNA from pOX-hENT2; conditions: for IC50 / ENT2 % uptake inhibition (Ado): 3H-Ado 20 μM, sodium-free buffer; for IC50: read-out: ENT2 IC50 (Ado uptake)
T3 sequence (Q14542 1-456): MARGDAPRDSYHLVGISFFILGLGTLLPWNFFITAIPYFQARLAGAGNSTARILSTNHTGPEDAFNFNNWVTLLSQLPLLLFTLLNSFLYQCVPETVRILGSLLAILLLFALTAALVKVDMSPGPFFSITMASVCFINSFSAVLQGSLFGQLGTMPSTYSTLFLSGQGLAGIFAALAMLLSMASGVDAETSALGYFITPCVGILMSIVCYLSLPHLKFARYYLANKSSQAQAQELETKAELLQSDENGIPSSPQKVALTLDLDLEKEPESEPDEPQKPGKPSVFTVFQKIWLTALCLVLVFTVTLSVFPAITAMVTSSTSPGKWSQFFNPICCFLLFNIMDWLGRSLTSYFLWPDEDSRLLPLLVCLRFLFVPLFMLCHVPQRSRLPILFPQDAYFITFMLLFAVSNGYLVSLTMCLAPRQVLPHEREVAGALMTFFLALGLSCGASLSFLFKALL
Description: as §1, §2, §3

ENT2 [3] = biological target: T3, ENT2; assay: BA transport by ENT2-injected oocytes quantified by LC-MS/MS; type: cell-based; parameters: expressed in transfected cells; host or cells: Xenopus laevis oocytes injected with in vitro-transcribed capped mRNA from pOX-hENT2; conditions: pH 7.4, p < 0.001 compared with water-injected oocytes
Procedure: Therefore, we studied several different BAs and used a liquid chromatography–tandem mass spectrometry (LC‒MS/MS) method to quantify the transport activity of H2O-injected and ENT2 mRNA-injected oocytes using TCA as a positive control. […] We subsequently tested the ability of ENT2 to transport BAs at different physiological pH values ranging from pH 5.5 to pH 7.4 by varying the pH of the transport buffers in which the assay was conducted.
The mass spectrometric validation of the transport of all metabolites was performed with oocytes using a previously reported method ([24]). […] After an incubation at 4 °C for 24 h, the samples were centrifuged at 20,000g for 10 min, and the supernatants were collected. The samples (10 μl) were injected into a Thermo Scientific Vanquish UPLC system interfaced with a Thermo Scientific TSQ Quantiva triple-stage quadrupole mass spectrometer equipped with an H-ESI ion source. MS detection was conducted in negative ionization mode, and the transitions monitored for each metabolite are listed in Sup. Table S2. The operational mass spectrometric parameters included a capillary voltage of 4.5 kV; sheath gas of 35 arbitrary units; auxiliary gas of 10 arbitrary units; sweep gas of two arbitrary units; ion transfer tube temperature of 350 °C; vaporizer temperature of 450 °C; dwell time of 50 ms per transition; collision energy of 5 V; and collision-induced dissociation gas of 1.5 mTorr. Chromatographic separation was performed on a Kinetex […] (100 × 2.1 mm; 1.7 μm particle size) from Phenomenex. The mobile phase consisted of solvent A: water (0.1% formic acid) and solvent B: acetonitrile (0.1% formic acid). The flow rate was set at 0.3 ml/min, and the autosampler was maintained at 4 °C throughout the analysis.

ENT1 [4] = conditions: classical nucleoside transporter inhibitors; no reference given; cited from earlier work
ENT2 [5] = biological target: T3, ENT2; assay: Inhibition of 3H-CA transport by ENT2 in oocytes by nucleoside transporter inhibitors; type: cell-based; parameters: expressed in transfected cells; host or cells: Xenopus laevis oocytes injected with in vitro-transcribed capped mRNA from pOX-hENT2; conditions: inhibitor at 10 μM (Fig. 2D legend 100 μM), pH 7.4
Procedure: Next, we asked whether the transport patterns of the above BAs mediated by ENT2 are similar to those of nucleoside transport in terms of pharmacological inhibition or pH-dependent properties.
Oocytes were procured from Ecocyte. Prior to experiments, procured oocytes were defolliculated by treating with collagenase A-OR II solution followed by washing with Barth’s solution. Following microscopic verification, selected oocytes were incubated to recover overnight at 25 °C in a shaker incubator. Fifty nanoliters (400–800 ng/μl) of equal amounts of mRNAs were injected into defolliculated oocytes the next day. […] The injected oocytes were incubated at 15 °C for 24 h before transport assays were performed. The uptake of radiolabeled substrates was measured after a 30 min incubation in transport buffer (100 mM NaCl, 2 mM KCl, 1 mM CaCl2, 1 mM MgCl2, and 10 mM Hepes, pH 7.4) at room temperature. Uptake was terminated by washing the oocytes three times with arrest buffer containing 20 mM uridine. Individual oocytes were shaken overnight in 10% SDS for complete dissolution, and then the radioactivity was quantified with a Beckman liquid scintillation counter. The data are presented as the mean ± SD (n = 8–12 oocytes). A representative experiment from 3 to 5 independent experiments is presented.

ENT2 [6] = conditions: classical nucleoside transporter inhibitors; no reference given; cited from earlier work

SMILES	IC50 (ENT3) [µM]	ENT3 % uptake inhibition (Ado) (ENT3; BA 100 μM) [%]	IC50 (ENT1 [1]) [µM]	ENT1 % uptake inhibition (Ado) (ENT1 [1]) [%]	IC50 (ENT2 [2]) [µM]	ENT2 % uptake inhibition (Ado) (ENT2 [2]; BA 100 μM)	transport by ENT2 mRNA-injected vs water-injected oocytes (LC-MS/MS) (ENT2 [3])	further results
C[C@H](CCC(=O)NCCS(=O)(=O)O)[C@H]1CC[C@H]2[C@@H]3[C@@H](O)C[C@@H]4C[C@H](O)CC[C@]4(C)[C@H]3CC[C@]12C [TUDCA, tauroursodeoxycholic acid]	35.3 ± 16.4	62.6	204 ± 63	42.72	4.9 ± 1.1	77% and 77.30%		inhibition of guanosine transport activity of ENT3 (ENT3; BA 100 μM, 3H-guanosine 20 μM): inhibited
C[C@H](CCC(=O)O)[C@H]1CC[C@H]2[C@@H]3[C@H](O)[C@H](O)[C@@H]4C[C@H](O)CC[C@]4(C)[C@H]3CC[C@]12C [hyocholic acid]							significant transport	
OCCN(CCO)c1nc(N2CCCCC2)c2nc(N(CCO)CCO)nc(N3CCCCC3)c2n1 [dipyridamole]								Ki (ENT1 [4]): ~0.01 µM; reduction of 3H-CA transport by ENT2 compared with uninhibited control (ENT2 [5]): 34.57%; Ki (ENT2 [6]): ~10 µM
C[C@H](CCC(=O)NCC(=O)O)[C@H]1CC[C@H]2[C@@H]3[C@H](O)C[C@@H]4C[C@H](O)CC[C@]4(C)[C@H]3C[C@H](O)[C@]12C [GCA, glycocholic acid]	10.7 ± 4.6	68.0	39.5 ± 8.5	35.05	16.7 ± 3.9	72.22%	significant transport	
O=[N+]([O-])c1ccc(CSc2ncnc3c2ncn3C2OC(CO)C(O)C2O)cc1 (centres unmarked) [NBMPR, nitrobenzylthioinosine]								Ki (ENT1 [4]): ~0.01 µM; reduction of 3H-CA transport by ENT2 compared with uninhibited control (ENT2 [5]): 53.38%; Ki (ENT2 [6]): ~10 µM
C[C@H](CCC(=O)O)[C@H]1CC[C@H]2[C@@H]3CC[C@@H]4C[C@H](O)CC[C@]4(C)[C@H]3CC[C@]12C [LCA]	88.8 ± 27.4	71.2	66.9 ± 15.4	32.59	18.4 ± 4.5	71.04%		
C[C@H](CCC(=O)O)[C@H]1CC[C@H]2[C@@H]3[C@@H](O)C[C@@H]4C[C@H](O)CC[C@]4(C)[C@H]3CC[C@]12C [ursodeoxycholic acid]							significant transport	
C[C@H](CCC(=O)NCCS(=O)(=O)O)[C@H]1CC[C@H]2[C@@H]3[C@@H](O)[C@@H](O)[C@@H]4C[C@H](O)CC[C@]4(C)[C@H]3CC[C@]12C [tauro-beta-muricholic acid]							significant transport	
COc1cc(C(=O)OCCCN2CCCN(CCCOC(=O)c3cc(OC)c(OC)c(OC)c3)CC2)cc(OC)c1OC [dilazep]								Ki (ENT1 [4]): ~0.01 µM; reduction of 3H-CA transport by ENT2 compared with uninhibited control (ENT2 [5]): 38.02%; Ki (ENT2 [6]): ~10 µM
C[C@H](CCC(=O)O)[C@H]1CC[C@H]2[C@@H]3[C@@H](O)[C@@H](O)[C@@H]4C[C@H](O)CC[C@]4(C)[C@H]3CC[C@]12C [beta-muricholic acid]							significant transport	
C[C@H](CCC(=O)O)[C@H]1CC[C@H]2[C@@H]3[C@H](O)C[C@@H]4C[C@H](O)CC[C@]4(C)[C@H]3CC[C@]12C [CDCA, chenodeoxycholic acid]	0.3 ± 0.1	77.0	24.3 ± 7	69.12	22.9 ± 4.9	66.07%	significant transport	inhibition of guanosine transport mediated by ENT2 (ENT2 [2]; BA 100 μM, 3H-guanosine 20 μM): not statistically significant

— publication PMC12152883, “Bile acids inhibit equilibrative adenosine transport to alter adenosine receptor signaling in cholestasis” (The Journal of Biological Chemistry, 2025)
